Reference: ChEMBL document CHEMBL4138216, “Design, synthesis and structure-activity relationship of a focused library of β-phenylalanine derivatives as novel eEF2K inhibitors with apoptosis-inducing mechanisms in breast cancer” (Eur J Med Chem, 2018)
Activity calls are given as the source filed them.

Legend:
[1] = target: T1, Eukaryotic elongation factor 2 kinase (Homo sapiens, UniProt O00418); assay: Inhibition of eEF2K (unknown origin) using peptide MH-1 as substrate after 2 hrs by ADP-Glo luminescent assay
T1 sequence (O00418 whole entry): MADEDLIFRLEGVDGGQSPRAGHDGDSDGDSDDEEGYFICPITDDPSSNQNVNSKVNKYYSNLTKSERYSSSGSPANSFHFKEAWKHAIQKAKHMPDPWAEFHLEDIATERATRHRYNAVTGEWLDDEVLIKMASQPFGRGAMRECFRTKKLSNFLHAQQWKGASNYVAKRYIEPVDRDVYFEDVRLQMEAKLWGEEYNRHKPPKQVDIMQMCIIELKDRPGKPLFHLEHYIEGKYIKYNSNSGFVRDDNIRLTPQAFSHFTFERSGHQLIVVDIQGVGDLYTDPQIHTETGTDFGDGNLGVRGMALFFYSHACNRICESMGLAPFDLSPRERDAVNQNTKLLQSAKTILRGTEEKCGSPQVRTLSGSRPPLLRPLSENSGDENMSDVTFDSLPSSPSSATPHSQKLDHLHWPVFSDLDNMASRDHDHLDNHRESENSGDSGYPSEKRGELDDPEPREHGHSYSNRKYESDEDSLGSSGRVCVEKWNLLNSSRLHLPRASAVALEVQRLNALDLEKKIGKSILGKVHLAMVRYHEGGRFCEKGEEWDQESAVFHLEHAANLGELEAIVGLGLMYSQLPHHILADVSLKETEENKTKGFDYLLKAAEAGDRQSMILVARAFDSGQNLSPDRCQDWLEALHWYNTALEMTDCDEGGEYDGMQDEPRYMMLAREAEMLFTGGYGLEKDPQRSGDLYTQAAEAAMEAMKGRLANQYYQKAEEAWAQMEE

MDA-MB-231 [2] = assay: Induction of apoptosis in human MDA-MB-231 cells assessed as membrane blebbing by phase contrast microscopy; format: functional, cell-based
MDA-MB-436 [3] = assay: Induction of apoptosis in human MDA-MB-436 cells assessed as formation of apoptotic bodies by phase contrast microscopy; format: functional, cell-based
MDA-MB-231 [4] = assay: Induction of apoptosis in human MDA-MB-231 cells assessed as DNA condensation after 12 to 36 hrs by Hoechst 33258 staining-based fluorescence assay; format: functional, cell-based
MDA-MB-436 [5] = assay: Induction of apoptosis in human MDA-MB-436 cells assessed as DNA condensation after 12 to 36 hrs by Hoechst 33258 staining-based fluorescence assay; format: functional, cell-based
MDA-MB-231 [6] = assay: Induction of apoptosis in human MDA-MB-231 cells assessed as loss of mitochondrial membrane potential after 12 to 36 hrs by rhodamine123 staining-based flow cytometric method; format: functional, cell-based
MDA-MB-436 [7] = assay: Induction of apoptosis in human MDA-MB-436 cells assessed as loss of mitochondrial membrane potential after 12 to 36 hrs by rhodamine123 staining-based flow cytometric method; format: functional, cell-based
MDA-MB-231 [8] = assay: Induction of apoptosis in human MDA-MB-231 cells assessed as upregulation of Bax expression after 12 to 36 hrs by Western blot method; format: functional, cell-based
MDA-MB-436 [9] = assay: Induction of apoptosis in human MDA-MB-436 cells assessed as upregulation of Bax expression after 12 to 36 hrs by Western blot method; format: functional, cell-based
MDA-MB-231 [10] = assay: Induction of apoptosis in human MDA-MB-231 cells assessed as downregulation of Bcl-2 expression after 12 to 36 hrs by Western blot method; format: functional, cell-based
MDA-MB-436 [11] = assay: Induction of apoptosis in human MDA-MB-436 cells assessed as downregulation of Bcl-2 expression after 12 to 36 hrs by Western blot method; format: functional, cell-based
MDA-MB-231 [12] = assay: Induction of apoptosis in human MDA-MB-231 cells assessed as increase in caspase-8 cleavage after 12 to 36 hrs by Western blot method; format: functional, cell-based
MDA-MB-436 [13] = assay: Induction of apoptosis in human MDA-MB-436 cells assessed as increase in caspase-8 cleavage after 12 to 36 hrs by Western blot method; format: functional, cell-based
MDA-MB-231 [14] = assay: Induction of apoptosis in human MDA-MB-231 cells assessed as increase in PARP cleavage after 12 to 36 hrs by Western blot method; format: functional, cell-based
MDA-MB-436 [15] = assay: Induction of apoptosis in human MDA-MB-436 cells assessed as increase in PARP cleavage after 12 to 36 hrs by Western blot method; format: functional, cell-based
Mus musculus [16] = assay: Toxicity in BALB/c nude mouse xenografted with human MDA-MB-231 cells assessed as body weight loss at 25 mg/kg, ig qd measured every 3 days for 24 days during compound dosing; format: organism-based; conditions: in vivo, po
Mus musculus [17] = assay: Toxicity in BALB/c nude mouse xenografted with human MDA-MB-436 cells assessed as body weight loss at 25 mg/kg, ig qd measured every 3 days for 24 days during compound dosing; format: organism-based; conditions: in vivo, po, 576 h
Mus musculus [18] = assay: Toxicity in BALB/c nude mouse xenografted with human MDA-MB-231 cells assessed as effect on liver weight at 25 to 100 mg/kg, ig qd measured after 24 days; format: organism-based; conditions: in vivo, po, 576 h
Mus musculus [19] = assay: Toxicity in BALB/c nude mouse xenografted with human MDA-MB-231 cells assessed as effect on kidney weight at 25 to 100 mg/kg, ig qd measured after 24 days; format: organism-based; conditions: in vivo, po, 576 h
Mus musculus [20] = assay: Toxicity in BALB/c nude mouse xenografted with human MDA-MB-436 cells assessed as effect on liver weight at 25 to 100 mg/kg, ig qd measured after 24 days; format: organism-based; conditions: in vivo, po, 576 h
Mus musculus [21] = assay: Toxicity in BALB/c nude mouse xenografted with human MDA-MB-436 cells assessed as effect on kidney weight at 25 to 100 mg/kg, ig qd measured after 24 days; format: organism-based; conditions: in vivo, po, 576 h
Mus musculus [22] = assay: Toxicity in BALB/c nude mouse xenografted with human MDA-MB-436 cells assessed as decrease in spleen weight at 100 mg/kg, ig qd measured after 24 days; format: organism-based; conditions: in vivo, po, 576 h
MDA-MB-231 [23] = assay: Antiproliferative activity against human MDA-MB-231 cells xenografted in BALB/c nude mouse at 25 to 100 mg/kg, ig qd measured after 24 days by Ki-67 staining-based assay; format: functional, organism-based
MDA-MB-231 [24] = assay: Induction of apoptosis in human MDA-MB-231 cells xenografted in BALB/c nude mouse at 25 to 100 mg/kg, ig qd measured after 24 days by TUNEL assay; format: functional, organism-based
MDA-MB-231 [25] = assay: Induction of apoptosis in human MDA-MB-231 cells xenografted in BALB/c nude mouse assessed as decrease in pro-caspase-3 levels at 25 to 100 mg/kg, ig qd measured after 24 days by immunohistochemical analysis; format: functional, organism-based
MDA-MB-231 [26] = assay: Induction of apoptosis in human MDA-MB-231 cells xenografted in BALB/c nude mouse assessed as increase in PARP cleavage at 25 to 100 mg/kg, ig qd measured after 24 days by Western blot method; format: functional, organism-based
MDA-MB-231 [27] = assay: Induction of apoptosis in human MDA-MB-231 cells xenografted in BALB/c nude mouse assessed as increase in caspase-3 cleavage at 25 to 100 mg/kg, ig qd measured after 24 days by Western blot method; format: functional, organism-based
Mus musculus [28] = assay: In vivo inhibition of eEF2K phosphorylation in tumor of BALB/c nude mouse xenografted with human MDA-MB-231 cells at 25 to 100 mg/kg, ig qd measured after 24 days by Western blot method; format: functional, organism-based

N#Cc1ccc(S(=O)(=O)NC(CC(=O)O)c2ccc(Cl)cc2Cl)cc1 (stereo not drawn)
Toxic: Activity (Mus musculus [16]) | Activity (Mus musculus [17]) | Activity (Mus musculus [22])
5.5 µM: IC50 [1]
active: Activity (MDA-MB-231 [2]) | Activity (MDA-MB-436 [3]) | Activity (MDA-MB-231 [4]) | Activity (MDA-MB-436 [5]) | Activity (MDA-MB-231 [6]) | Activity (MDA-MB-436 [7]) | Activity (MDA-MB-231 [8]) | Activity (MDA-MB-436 [9]) | Activity (MDA-MB-231 [10]) | Activity (MDA-MB-436 [11]) | Activity (MDA-MB-231 [12]) | Activity (MDA-MB-436 [13]) | Activity (MDA-MB-231 [14]) | Activity (MDA-MB-436 [15]) | Activity (MDA-MB-231 [23]) | Activity (MDA-MB-231 [24]) | Activity (MDA-MB-231 [25]) | Activity (MDA-MB-231 [26]) | Activity (MDA-MB-231 [27]) | inhibition (Mus musculus [28])
Non-Toxic: Activity (Mus musculus [18]) | Activity (Mus musculus [19]) | Activity (Mus musculus [20]) | Activity (Mus musculus [21])
